Test results as given in US20230129364A1, “PYRROLIDINE DERIVATIVE, AND PHARMACEUTICAL COMPOSITION FOR PREVENTING OR TREATING BETA-AMYLOID OR TAU PROTEIN-ASSOCIATED DISEASES CONTAINING SAME” (YONSEI UNIVERSITY, UNIVERSITY - INDUSTRY FOUNDATION (UIF), priority 2019, published 2023).

Tests used:
Format in all cases: biochemical
[1] = biological target: T1, Tau protein (wild-type K18) (Homo sapiens, UniProt P10636); experiment: Tau protein aggregation inhibition test (thioflavin T assay); settings: heparin/DTT-induced aggregation, 37° C. 5 days, ThT fluorescence vs tau-only control = 100%
T1 construct: Tau protein (wild-type K18)
T1 sequence (P10636 561-685 limits assumed): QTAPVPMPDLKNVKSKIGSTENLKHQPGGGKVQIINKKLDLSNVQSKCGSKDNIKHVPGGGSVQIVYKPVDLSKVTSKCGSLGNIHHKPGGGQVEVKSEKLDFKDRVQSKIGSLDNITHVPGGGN
Method: (§1) Tau protein (wild-type K18) was dissolved in phosphate-buffered saline (PBS, pH 7.4) at a concentration of 1 mg/mL to prepare a tau protein solution. In order to induce aggregation of tau proteins, 0.1 mg/mL of heparin and 100 μM dithiothreitol (DTT) were added to 1 mg/mL of the tau protein solution, followed by incubation at 37° C. for 5 days. At this time, the result was mixed with each test compound (50, 500 μM) such that the final concentration reached 0.5 mg/mL, followed by further incubation.
The inhibitory effect of each compound against tau aggregation was measured based on the intensity of fluorescence by thioflavin T (ThT) assay (see Example 2). More specifically, 25 μL of the reaction solution was charged in each well of a 96-well plate for fluorescence analysis, and 75 μL of the prepared thioflavin-T solution was then charged in each well. The reaction was allowed to proceed at room temperature in a dark laboratory for 5 minutes, and then fluorescence values were measured at an excitation wavelength of 450 nm and an emission wavelength of 485 nm using a multi-mode microplate reader.
The ratio of the fluorescence value measured in the group obtained by treating with each test compound to 100% of the fluorescence value of the group (control group) obtained by treating only with tau proteins and inducing aggregation for 5 days is set forth in Table 5 below: […]

[2] = biological target: T2, aggregated beta-amyloid; human Aβ 1-42 (UniProtKB-P05067, a.a. 672-713) (Homo sapiens, UniProt P05067); experiment: Beta-amyloid aggregate degradation test (thioflavin T assay); settings: pre-aggregated Aβ, further 3 days at 37° C., ThT fluorescence vs control = 100%
T2 construct: UniProtKB-P05067, a.a; 672-713
T2 sequence (P05067 672-713): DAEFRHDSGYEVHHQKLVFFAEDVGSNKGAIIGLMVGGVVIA
Method: Aβ (beta-amyloid; human A3 1-42 monomer (UniProtKB-P05067, a.a. 672-713)) was dissolved at a concentration of 10 mM in dimethyl sulfoxide (DMSO), and the resulting solution was diluted to 250 μM using distilled water, and then incubated at 37° C. for 3 days to induce aggregation. The aggregated beta-amyloid was added with each test compound in an amount of 50 or 500 μM such that the final concentration reached 25 μM, and was further cultured at 37° C. for 3 days to induce reaction. The aggregate degradation effect of each test compound was measured by thioflavin T (ThT) assay (see Example 2). Specifically, 25 μL of the reaction solution was charged in each well of a 96-well plate for fluorescence analysis and 75 μL of the prepared thioflavin-T solution was charged in each well. The reaction was allowed to proceed at room temperature in a dark laboratory for 5 minutes and then fluorescence values were measured at an excitation wavelength of 450 nm and an emission wavelength of 485 nm using a multi-mode microplate reader. The ratio of the fluorescence value measured in the group obtained by treating with each test compound to 100% of the fluorescence value of the group (control group) obtained by treating only with beta-amyloids and inducing aggregation for 3 days is set forth in Table 4 below: […]

[3] = biological target: T3, aggregated tau protein (wild-type K18) (Homo sapiens, UniProt P10636); experiment: Tau protein aggregate degradation test (thioflavin T assay); settings: pre-aggregated tau, further 5 days at 37° C., ThT fluorescence vs control = 100%
T3 construct: Tau protein (wild-type K18)
T3 sequence (P10636 561-685 limits assumed): as the sequence (P10636 561-685 limits assumed) above
Method: as §1, with “solution.” for “solution. In order to induce aggregation of tau proteins,”, “days to induce tau protein aggregation. The aggregated tau protein” for “days. At this time, the result”, “in an amount of 50 or” for “(50,”, “μM” for “μM)”, “incubation at 37° C. for 5 days to induce reaction.” for “incubation.”
The degradation effect of each compound on the tau aggregates was measured by thioflavin T (ThT) assay (see Example 2). More specifically, 25 μL of the reaction solution was charged in each well of a 96-well plate for fluorescence analysis and 75 μL of the prepared thioflavin-T solution was charged in each well. The reaction was allowed to proceed at room temperature in a dark laboratory for 5 minutes and then fluorescence values were measured at an excitation wavelength of 450 nm and an emission wavelength of 485 nm using a multi-mode microplate reader.
The ratio of the fluorescence value measured in the group obtained by treating with each test compound to 100% of the fluorescence value of the group (control group) obtained by treating only with tau proteins and inducing aggregation for 5 days is set forth in Table 6 below: […]

## O=C1NC(=O)/C(=C/c2c[nH]c3ncccc23)S1 [DN204286, (Z)-5-((1H-pyrrolo[2,3-b]pyridin-3-yl)methylene)thiazolidine-2,4-dione]
[1]; 50 uM test compound
  Tau aggregation remaining (ThT fluorescence, % of tau-only control): 56.04 % of control
[1]; 500 uM test compound
  Tau aggregation remaining (ThT fluorescence, % of tau-only control): 82.71 % of control
[2]; 500 uM test compound
  Beta-amyloid aggregate degradation activity (% of control): 94.23 % of control

## O=C1NC(=O)/C(=C/c2c[nH]c3cccnc23)S1 [DN204289, (Z)-5-((1H-pyrrolo[3,2-b]pyridin-3-yl)methylene)thiazolidine-2,4-dione]
[1]; 50 uM test compound
  Tau aggregation remaining (ThT fluorescence, % of tau-only control): 60.71 % of control
[1]; 500 uM test compound
  Tau aggregation remaining (ThT fluorescence, % of tau-only control): 46.16 % of control
[2]; 50 uM test compound
  Beta-amyloid aggregate degradation activity (% of control): 83.66 % of control
[2]; 500 uM test compound
  Beta-amyloid aggregate degradation activity (% of control): 54.07 % of control
[3]; 50 uM test compound
  ThT fluorescence remaining (% of control): 57.57 % of control
[3]; 500 uM test compound
  ThT fluorescence remaining (% of control): 52.83 % of control

## O=C1NC(=O)C(Cc2cnc3ccccc3c2)S1 (stereo not shown) [DN204294, 5-(quinolin-3-ylmethyl)thiazolidine-2,4-dione]
[1]; 50 uM test compound
  Tau aggregation remaining (ThT fluorescence, % of tau-only control): 85.91 % of control
[2]; 50 uM test compound
  Beta-amyloid aggregate degradation activity (% of control): 88.64 % of control
[2]; 500 uM test compound
  Beta-amyloid aggregate degradation activity (% of control): 74.80 % of control

## O=C1NC(=S)S/C1=C\c1c[nH]c2ccccc12 [DN204296, (Z)-5-((1H-indol-3-yl)methylene)-2-thioxothiazolidin-4-one]
[1]; 50 uM test compound
  Tau aggregation remaining (ThT fluorescence, % of tau-only control): 13.243 % of control
[1]; 500 uM test compound
  Tau aggregation remaining (ThT fluorescence, % of tau-only control): 4.984 % of control
[2]; 50 uM test compound
  Beta-amyloid aggregate degradation activity (% of control): 68.90 % of control
[2]; 500 uM test compound
  Beta-amyloid aggregate degradation activity (% of control): 17.28 % of control
[3]; 50 uM test compound
  ThT fluorescence remaining (% of control): 30.26 % of control
[3]; 500 uM test compound
  ThT fluorescence remaining (% of control): 16.48 % of control

## O=C1NC(=S)S/C1=C\c1cc[nH]c1 [DN204297, (Z)-5-((1H-pyrrol-3-yl)methylene)-2-thioxothiazolidin-4-one]
[1]; 50 uM test compound
  Tau aggregation remaining (ThT fluorescence, % of tau-only control): 48.721 % of control
[1]; 500 uM test compound
  Tau aggregation remaining (ThT fluorescence, % of tau-only control): 16.233 % of control
[2]; 50 uM test compound
  Beta-amyloid aggregate degradation activity (% of control): 86.80 % of control
[2]; 500 uM test compound
  Beta-amyloid aggregate degradation activity (% of control): 28.19 % of control
[3]; 50 uM test compound
  ThT fluorescence remaining (% of control): 52.16 % of control
[3]; 500 uM test compound
  ThT fluorescence remaining (% of control): 17.97 % of control

## O=C1NC(=S)S/C1=C\c1ccoc1 [DN204298, (Z)-5-(furan-3-ylmethylene)-2-thioxothiazolidin-4-one]
[1]; 50 uM test compound
  Tau aggregation remaining (ThT fluorescence, % of tau-only control): 71.163 % of control
[1]; 500 uM test compound
  Tau aggregation remaining (ThT fluorescence, % of tau-only control): 33.817 % of control
[2]; 50 uM test compound
  Beta-amyloid aggregate degradation activity (% of control): 59.37 % of control
[2]; 500 uM test compound
  Beta-amyloid aggregate degradation activity (% of control): 7.79 % of control
[3]; 50 uM test compound
  ThT fluorescence remaining (% of control): 61.36 % of control
[3]; 500 uM test compound
  ThT fluorescence remaining (% of control): 29.73 % of control

## O=C1NC(=S)S/C1=C\c1ccsc1 [DN204299, (Z)-5-(thiophen-3-ylmethylene)-2-thioxothiazolidin-4-one]
[1]; 50 uM test compound
  Tau aggregation remaining (ThT fluorescence, % of tau-only control): 60.521 % of control
[1]; 500 uM test compound
  Tau aggregation remaining (ThT fluorescence, % of tau-only control): 33.932 % of control
[2]; 500 uM test compound
  Beta-amyloid aggregate degradation activity (% of control): 80.07 % of control
[3]; 50 uM test compound
  ThT fluorescence remaining (% of control): 72.21 % of control
[3]; 500 uM test compound
  ThT fluorescence remaining (% of control): 45.09 % of control

## O=C1NC(=S)SC1Cc1cc[nH]c1 (stereo not shown) [DN204303, 5-((1H-pyrrol-3-yl)methyl)-2-thioxothiazolidin-4-one]
[1]; 50 uM test compound
  Tau aggregation remaining (ThT fluorescence, % of tau-only control): 82.4 % of control
[1]; 500 uM test compound
  Tau aggregation remaining (ThT fluorescence, % of tau-only control): 29.14 % of control
[2]; 50 uM test compound
  Beta-amyloid aggregate degradation activity (% of control): 90.66 % of control
[2]; 500 uM test compound
  Beta-amyloid aggregate degradation activity (% of control): 33.65 % of control
[3]; 50 uM test compound
  ThT fluorescence remaining (% of control): 81.77 % of control
[3]; 500 uM test compound
  ThT fluorescence remaining (% of control): 39.19 % of control

## O=C1NC(=S)SC1Cc1c[nH]c2ncccc12 (stereo not shown) [DN204304, 5-((1H-pyrrolo[2,3-b]pyridin-3-yl)methyl)-2-thioxothiazolidin-4-one]
[1]; 50 uM test compound
  Tau aggregation remaining (ThT fluorescence, % of tau-only control): 70.66 % of control
[1]; 500 uM test compound
  Tau aggregation remaining (ThT fluorescence, % of tau-only control): 39.54 % of control
[2]; 50 uM test compound
  Beta-amyloid aggregate degradation activity (% of control): 97.47 % of control
[2]; 500 uM test compound
  Beta-amyloid aggregate degradation activity (% of control): 73.11 % of control
[3]; 50 uM test compound
  ThT fluorescence remaining (% of control): 67.53 % of control
[3]; 500 uM test compound
  ThT fluorescence remaining (% of control): 50.23 % of control

## CN1C(=O)N/C(=C\c2c[nH]c3cccnc23)C1=O [DN204673, (Z)-5-((1H-pyrrolo[3,2-b]pyridin-3-yl)methylene)-3-methylimidazolidine-2,4-dione]
[1]; 500 uM test compound
  Tau aggregation remaining (ThT fluorescence, % of tau-only control): 55.87 % of control
[2]; 50 uM test compound
  Beta-amyloid aggregate degradation activity (% of control): 86.89 % of control
[2]; 500 uM test compound
  Beta-amyloid aggregate degradation activity (% of control): 30.52 % of control

## O=C1NC(=S)S/C1=C\c1c[nH]c2ccncc12 [DN204807, (Z)-5-((1H-pyrrolo[3,2-c]pyridin-3-yl)methylene)-2-thioxothiazolidin-4-one]
[1]; 50 uM test compound
  Tau aggregation remaining (ThT fluorescence, % of tau-only control): 93.56 % of control
[1]; 500 uM test compound
  Tau aggregation remaining (ThT fluorescence, % of tau-only control): 74.24 % of control
[2]; 500 uM test compound
  Beta-amyloid aggregate degradation activity (% of control): 53.56 % of control

## O=C1NC(=S)S/C1=C\c1c[nH]c2cccnc12 [DN204808, (Z)-5-((1H-pyrrolo[3,2-b]pyridin-3-yl)methylene)-2-thioxothiazolidin-4-one]
[1]; 50 uM test compound
  Tau aggregation remaining (ThT fluorescence, % of tau-only control): 27.48 % of control
[1]; 500 uM test compound
  Tau aggregation remaining (ThT fluorescence, % of tau-only control): 16.09 % of control
[2]; 500 uM test compound
  Beta-amyloid aggregate degradation activity (% of control): 73.30 % of control
[3]; 50 uM test compound
  ThT fluorescence remaining (% of control): 62.2 % of control
[3]; 500 uM test compound
  ThT fluorescence remaining (% of control): 41.11 % of control

## O=C1NC(=S)S/C1=C\c1ccc2occc2c1 [DN204809, (Z)-5-(benzofuran-5-ylmethylene)-2-thioxothiazolidin-4-one]
[1]; 50 uM test compound
  Tau aggregation remaining (ThT fluorescence, % of tau-only control): 36.72 % of control
[1]; 500 uM test compound
  Tau aggregation remaining (ThT fluorescence, % of tau-only control): 32.09 % of control
[2]; 50 uM test compound
  Beta-amyloid aggregate degradation activity (% of control): 95.14 % of control
[2]; 500 uM test compound
  Beta-amyloid aggregate degradation activity (% of control): 25.32 % of control
[3]; 50 uM test compound
  ThT fluorescence remaining (% of control): 51.93 % of control
[3]; 500 uM test compound
  ThT fluorescence remaining (% of control): 30.87 % of control

## CCN1C(=O)/C(=C/c2c[nH]c3ccccc23)NC1=S [DN204811, (Z)-5-((1H-indol-3-yl)methylene)-3-ethyl-2-thioxoimidazolidin-4-one]
[1]; 50 uM test compound
  Tau aggregation remaining (ThT fluorescence, % of tau-only control): 43.22 % of control
[1]; 500 uM test compound
  Tau aggregation remaining (ThT fluorescence, % of tau-only control): 40.21 % of control
[2]; 50 uM test compound
  Beta-amyloid aggregate degradation activity (% of control): 74.64 % of control
[2]; 500 uM test compound
  Beta-amyloid aggregate degradation activity (% of control): 28.97 % of control
[3]; 50 uM test compound
  ThT fluorescence remaining (% of control): 50.44 % of control
[3]; 500 uM test compound
  ThT fluorescence remaining (% of control): 31.04 % of control
